Results from PubChem BioAssay AID1963969 (Molecular Pharmacology Branch, DTP, NCI, 2024).
Several values for one entry are separate records, joined by “and”; a condition that tells them apart may be missing. Equal values may be shown once.

Tested on: 817829-284-R-J1-PDC multi-cell spheroid viability
Assay: Anticancer human tumor 817829-284-R-J1-PDC patient-derived colon adenocarcinoma cell line growth inhibition [PI3K]
Conditions: for viability, T/C: stronger effect = lower value
How it was run: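 Spheroid viability read-out. Co-cultures contained the tumor line plus HUVEC and human MSCs. Each agent was paired with a PI3K inhibitor (inavolisib, alpelisib, duvelisib, copanlisib) across half-log dilutions starting at clinical Cmax, or at 10 microM when Cmax was unknown.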

[1] = curve of first compound, second compound 0.0316 µM
[2] = curve of first compound, second compound 0.1 µM
[3] = curve of first compound, second compound 0.316 µM
[4] = curve of first compound, second compound 1 µM
[5] = curve of first compound, second compound 3.16 µM
[6] = curve of first compound, second compound 10 µM
[7] = second compound 0.0316 µM, first compound 0.000316 µM
[8] = second compound 0.0316 µM, first compound 0.001 µM
[9] = second compound 0.0316 µM, first compound 0.00316 µM
[10] = second compound 0.0316 µM, first compound 0.01 µM
[11] = second compound 0.0316 µM, first compound 0.0316 µM
[12] = second compound 0.0316 µM, first compound 0.1 µM
[13] = second compound 0.1 µM, first compound 0.000316 µM
[14] = second compound 0.1 µM, first compound 0.001 µM
[15] = second compound 0.1 µM, first compound 0.00316 µM
[16] = second compound 0.1 µM, first compound 0.01 µM
[17] = second compound 0.1 µM, first compound 0.0316 µM
[18] = second compound 0.1 µM, first compound 0.1 µM
[19] = second compound 0.316 µM, first compound 0.000316 µM
[20] = second compound 0.316 µM, first compound 0.001 µM
[21] = second compound 0.316 µM, first compound 0.00316 µM
[22] = second compound 0.316 µM, first compound 0.01 µM
[23] = second compound 0.316 µM, first compound 0.0316 µM
[24] = second compound 0.316 µM, first compound 0.1 µM
[25] = second compound 1 µM, first compound 0.000316 µM
[26] = second compound 1 µM, first compound 0.001 µM
[27] = second compound 1 µM, first compound 0.00316 µM
[28] = second compound 1 µM, first compound 0.01 µM
[29] = second compound 1 µM, first compound 0.0316 µM
[30] = second compound 1 µM, first compound 0.1 µM
[31] = second compound 3.16 µM, first compound 0.0316 µM
[32] = second compound 3.16 µM, first compound 0.1 µM
[33] = second compound 10 µM, first compound 0.0316 µM
[34] = second compound 10 µM, first compound 0.1 µM
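Note: spheroids exposed to agents for seven days before readout.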
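Throughout, for viability, T/C: percent of vehicle DMSO control viability which is 100%.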

C[C@@H](NC(=O)c1ncnc(N)c1Cl)c1ncc(C(=O)Nc2cc(C(F)(F)F)c(Cl)cn2)s1
viability, T/C (compound 0.0316 µM): 97.5% and 79.4%
viability, T/C (compound 0.1 µM): 79.2% and 114%
viability, T/C (compound 0.316 µM): 89.2% and 87.8%
viability, T/C (compound 1 µM): 70.5% and 67%
viability, T/C (compound 3.16 µM): 113% and 64.2%
viability, T/C (compound 10 µM): 59.5% and 101%
IC50 (curve of compound): > 10000 nM

CC(=O)c1c(C)c2cnc(Nc3ccc(N4CCNCC4)cn3)nc2n(C2CCCC2)c1=O + CC(Nc1ncnc2nc[nH]c12)c1cc2cccc(Cl)c2c(=O)n1-c1ccccc1
IC50 [1]: 70.9 nM
IC50 [2]: 74 nM
IC50 [3]: > 100 nM
IC50 [4]: 71.2 nM
IC50 [5]: 14.3 nM
IC50 [6]: 33.4 nM
viability, T/C [7]: 96%
viability, T/C [8]: 68.1%
viability, T/C [9]: 74.3%
viability, T/C [10]: 75.4%
viability, T/C [11]: 77%
viability, T/C [12]: 38.6%
viability, T/C [13]: 92.5%
viability, T/C [14]: 79.8%
viability, T/C [15]: 74.5%
viability, T/C [16]: 90.2%
viability, T/C [17]: 79%
viability, T/C [18]: 39.4%
viability, T/C [19]: 90.8%
viability, T/C [20]: 85%
viability, T/C [21]: 101%
viability, T/C [22]: 60.2%
viability, T/C [23]: 56.5%
viability, T/C [24]: 51.3%
viability, T/C [25]: 101%
viability, T/C [26]: 73.1%
viability, T/C [27]: 78.7%
viability, T/C [28]: 83.5%
viability, T/C [29]: 59.8%
viability, T/C [30]: 43.5%
viability, T/C (second compound 3.16 µM, first compound 0.000316 µM): 65%
viability, T/C (second compound 3.16 µM, first compound 0.001 µM): 134%
viability, T/C (second compound 3.16 µM, first compound 0.00316 µM): 78.8%
viability, T/C (second compound 3.16 µM, first compound 0.01 µM): 57.5%
viability, T/C [31]: 37.8%
viability, T/C [32]: 42.7%
viability, T/C (second compound 10 µM, first compound 0.000316 µM): 60.1%
viability, T/C (second compound 10 µM, first compound 0.001 µM): 54.4%
viability, T/C (second compound 10 µM, first compound 0.00316 µM): 51%
viability, T/C (second compound 10 µM, first compound 0.01 µM): 66.3%
viability, T/C [33]: 46.6%
viability, T/C [34]: 34.4%

CC(Cn1ccc(-c2ccc(C#N)c(Cl)c2)n1)NC(=O)c1cc(C(C)O)[nH]n1 (centres undefined)
IC50 (curve of compound): > 10000 nM

CC(C)NCC(C(=O)N1CCN(c2ncnc3c2C(C)CC3O)CC1)c1ccc(Cl)cc1 (centres undefined) + Cc1nc(NC(=O)N2CCCC2C(N)=O)sc1-c1ccnc(C(C)(C)C(F)(F)F)c1
IC50 [1]: 249 nM
IC50 [2]: 193 nM
IC50 [3]: 203 nM
IC50 [4]: 165 nM
IC50 [5]: 69.2 nM
IC50 [6]: 38.8 nM
viability, T/C [11]: 80.1%
viability, T/C [12]: 62.1%
viability, T/C (second compound 0.0316 µM, first compound 0.316 µM): 51.1%
viability, T/C (second compound 0.0316 µM, first compound 1 µM): 21.8%
viability, T/C (second compound 0.0316 µM, first compound 3.16 µM): 19.6%
viability, T/C (second compound 0.0316 µM, first compound 10 µM): 13.5%
viability, T/C [17]: 82.5%
viability, T/C [18]: 72.9%
viability, T/C (second compound 0.1 µM, first compound 0.316 µM): 32.4%
viability, T/C (second compound 0.1 µM, first compound 1 µM): 21.5%
viability, T/C (second compound 0.1 µM, first compound 3.16 µM): 19.4%
viability, T/C (second compound 0.1 µM, first compound 10 µM): 13.1%
viability, T/C [23]: 55.5%
viability, T/C [24]: 107%
viability, T/C (second compound 0.316 µM, first compound 0.316 µM): 30.5%
viability, T/C (second compound 0.316 µM, first compound 1 µM): 24.4%
viability, T/C (second compound 0.316 µM, first compound 3.16 µM): 17.3%
viability, T/C (second compound 0.316 µM, first compound 10 µM): 11%
viability, T/C [29]: 69.3%
viability, T/C [30]: 66.3%
viability, T/C (second compound 1 µM, first compound 0.316 µM): 29.6%
viability, T/C (second compound 1 µM, first compound 1 µM): 23%
viability, T/C (second compound 1 µM, first compound 3.16 µM): 16.6%
viability, T/C (second compound 1 µM, first compound 10 µM): 8.39%
viability, T/C [31]: 69.3%
viability, T/C [32]: 40.2%
viability, T/C (second compound 3.16 µM, first compound 0.316 µM): 23.9%
viability, T/C (second compound 3.16 µM, first compound 1 µM): 19.2%
viability, T/C (second compound 3.16 µM, first compound 3.16 µM): 15.3%
viability, T/C (second compound 3.16 µM, first compound 10 µM): 6.49%
viability, T/C [33]: 52.8%
viability, T/C [34]: 39.5%
viability, T/C (second compound 10 µM, first compound 0.316 µM): 29%
viability, T/C (second compound 10 µM, first compound 1 µM): 24.6%
viability, T/C (second compound 10 µM, first compound 3.16 µM): 12.5%
viability, T/C (second compound 10 µM, first compound 10 µM): 6.18%

CC(=O)c1c(C)c2cnc(Nc3ccc(N4CCNCC4)cn3)nc2n(C2CCCC2)c1=O + COc1c(OCCCN2CCOCC2)ccc2c3n(c(=NC(=O)c4cnc(N)nc4)nc12)CCN3
IC50 (curve of first compound, second compound 0.00316 µM): 52.3 nM
IC50 (curve of first compound, second compound 0.01 µM): > 100 nM
IC50 [1]: 12.3 nM
IC50 [2]: < 0.316 nM
IC50 [3]: < 0.316 nM
IC50 [4]: < 0.316 nM
viability, T/C (second compound 0.00316 µM, first compound 0.000316 µM): 79.1%
viability, T/C (second compound 0.00316 µM, first compound 0.001 µM): 85.2%
viability, T/C (second compound 0.00316 µM, first compound 0.00316 µM): 66.7%
viability, T/C (second compound 0.00316 µM, first compound 0.01 µM): 74.5%
viability, T/C (second compound 0.00316 µM, first compound 0.0316 µM): 66.6%
viability, T/C (second compound 0.00316 µM, first compound 0.1 µM): 30.2%
viability, T/C (second compound 0.01 µM, first compound 0.000316 µM): 91.1%
viability, T/C (second compound 0.01 µM, first compound 0.001 µM): 60%
viability, T/C (second compound 0.01 µM, first compound 0.00316 µM): 56%
viability, T/C (second compound 0.01 µM, first compound 0.01 µM): 55.7%
viability, T/C (second compound 0.01 µM, first compound 0.0316 µM): 75.7%
viability, T/C (second compound 0.01 µM, first compound 0.1 µM): 34%
viability, T/C [7]: 65.2%
viability, T/C [8]: 40.6%
viability, T/C [9]: 48.3%
viability, T/C [10]: 60.6%
viability, T/C [11]: 33.5%
viability, T/C [12]: 24.3%
viability, T/C [13]: 29.2%
viability, T/C [14]: 30.3%
viability, T/C [15]: 34.6%
viability, T/C [16]: 21.1%
viability, T/C [17]: 22.7%
viability, T/C [18]: 25.3%
viability, T/C [19]: 16.9%
viability, T/C [20]: 22.2%
viability, T/C [21]: 20.8%
viability, T/C [22]: 17.9%
viability, T/C [23]: 18.2%
viability, T/C [24]: 16.2%
viability, T/C [25]: 11.2%
viability, T/C [26]: 10.2%
viability, T/C [27]: 8.91%
viability, T/C [28]: 12.2%
viability, T/C [29]: 11.6%
viability, T/C [30]: 7.24%
